The results in this text go back to ChEMBL document CHEMBL1132015, “Selective inactivation of protein tyrosine phosphatase PTP1B by sulfone analogue of naphthoquinone” (Bioorg Med Chem Lett, 1999).

A short description of the experiment: Inhibitory constant was determined against Protein tyrosine phosphatase (PTP) using the Kitz and Wilson method.

The Ki is a dissociation constant, usually derived from enzyme kinetics or from competition with a known ligand. A lower Ki goes with tighter binding.

As for `O=C1C(CCl)=CS(=O)(=O)c2ccccc21`, the Ki came out at 3.5 µM. That is a single-digit micromolar value.
